These results are taken from patent publication US11364220B2, “Compounds and methods for inhibiting CPY26 enzymes” (Queen's University at Kingston, priority 2016, dated 2022).

For test [1], the target named is CYP26A1 (Homo sapiens (Human), UniProt O43174). Description: Cell-based inhibitor assay, [H]-RA metabolism in CYP26A1 stably transfected HeLa cells. The conditions noted are these: for IC50: CYP26A1 transfected HeLa cells, 3 hours at 37° C., inhibition of all trans-RA metabolism, read-out: IC50 26A1; for inhibition of CYP26A1-mediated RA metabolism compared with ketoconazole (in words): see IC50 values in Table 2. Here is the method: (§1) CYP26A1 or CYP26B1 stably transfected HeLa cells were maintained in Minimum Essential Medium (MEM) containing 10% fetal bovine serum (FBS) and 100 μg/mL hygromycin. Exponentially growing cells were harvested by incubation in trypsin. Cells were then collected and re-plated in 48-well culture plates at 5×10^5 cells in 0.2 mL of culture medium containing 0.05 μCi [H]-RA in the presence or absence of increasing concentrations of a test compound. The test compounds were diluted in dimethyl sulfoxide (DMSO) and then added in duplicate to wells at 0.01, 0.1, 1, 10 and 100 μM final concentration. […] Cells were incubated for 3 hours at 37° C. Retinoids were then extracted using the procedure of Bligh, et al., (1959), Canadian Journal of Biochemistry 37, 911-917, which was modified by using dichloromethane instead of chloroform. Each sample's water soluble radioactivity level was quantified using a β-scintillation counter (using Ecolume scintillation fluid, available from MP Biomedicals of Solon, Ohio, USA).

In test [2] the target is CYP26B1 (Homo sapiens (Human), UniProt Q9NR63). Description: Cell-based inhibitor assay, [H]-RA metabolism in CYP26B1 stably transfected HeLa cells. The conditions noted are these: for IC50: read-out: IC50 26B1. Here is the method:
as §1

In test [3] the test system is RA sensitive reporter construct pCYP26A1-luc in MCF-7 cells. Description: Retinoid activity assay, RA sensitive pCYP26A1-luc reporter in MCF-7 cells. The conditions noted are these: 24 hours, firefly relative to Renilla luciferase. Type of test: cell-based. From the text:
This retinoid activity assay measures the ability of test compounds to induce expression of a transiently transfected RA sensitive reporter construct. In this assay, MCF-7 cells are transfected with a construct comprising an upstream promoter of the CYP26A1 gene containing 2 RA response elements driving expression of firefly luciferase (pCYP26A1-luc). Since CYP26A1 is highly inducible by RA in these cells, this construct serves as a sensitive reporter of retinoid-like transcriptional activity.
MCF-7 cells were maintained in RPMI-1640 medium containing 10% FBS. Exponentially growing cells were harvested by incubation in trypsin. Cells were then collected and plated in 24-well plates at 50,000 cells/well. Once cells reached 80-90% confluence (e.g., the next day), cells were transfected with two plasmids. The first plasmid was CYP26A1-luc construct (375 ng). The second plasmid was a control plasmid comprising the Renilla luciferase gene driven by constitutive thymidine kinase promoter (pRL-tk) (25 ng). Transfection was performed using FuGene 6 transfection reagent (Promega) with a 1:3 ratio of DNA:FuGene. 24 hours after transfection, cells were treated with test compounds diluted in DMSO in triplicate at 0.1, 1 and 10 μM final concentrations. As a positive control for reporter activation, cells were also treated with RA diluted in DMSO at the same concentrations listed above. DMSO treatment alone served as a negative control. After 24 hours of treatment, cells were harvested in passive lysis buffer (Promega) and luciferase activity in cell lysates were read using a luminometer. Data are expressed as the activity of firefly luciferase relative to Renilla luciferase (see Table 3). For CYP26A1 inhibitor compounds, no activation of the reporter was detected, while the related retinoid-like compound induces luciferase expression.

The mark [4] stands for this setting: CYP26B1 transfected HeLa cells, 3 hours at 37° C., inhibition of all trans-RA metabolism.

Where two headings read alike, the source gives them in different places. Some results are limits rather than exact numbers.

Chain of CYP26B1 (Q9NR63 whole entry, species assumed): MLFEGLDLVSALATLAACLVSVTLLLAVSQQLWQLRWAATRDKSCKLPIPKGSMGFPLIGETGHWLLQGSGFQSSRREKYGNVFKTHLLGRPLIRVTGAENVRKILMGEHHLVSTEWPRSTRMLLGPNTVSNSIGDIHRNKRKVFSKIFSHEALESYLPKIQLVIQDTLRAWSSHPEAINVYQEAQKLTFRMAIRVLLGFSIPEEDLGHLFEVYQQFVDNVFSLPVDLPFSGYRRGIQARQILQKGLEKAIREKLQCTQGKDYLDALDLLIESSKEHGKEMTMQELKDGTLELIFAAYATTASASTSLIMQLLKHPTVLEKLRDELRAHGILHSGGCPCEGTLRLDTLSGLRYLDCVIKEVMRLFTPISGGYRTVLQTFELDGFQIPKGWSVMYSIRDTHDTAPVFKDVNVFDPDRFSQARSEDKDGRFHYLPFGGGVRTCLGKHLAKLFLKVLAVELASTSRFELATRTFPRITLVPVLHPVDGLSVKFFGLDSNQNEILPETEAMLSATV
Chain of CYP26A1 (O43174 whole entry, species assumed): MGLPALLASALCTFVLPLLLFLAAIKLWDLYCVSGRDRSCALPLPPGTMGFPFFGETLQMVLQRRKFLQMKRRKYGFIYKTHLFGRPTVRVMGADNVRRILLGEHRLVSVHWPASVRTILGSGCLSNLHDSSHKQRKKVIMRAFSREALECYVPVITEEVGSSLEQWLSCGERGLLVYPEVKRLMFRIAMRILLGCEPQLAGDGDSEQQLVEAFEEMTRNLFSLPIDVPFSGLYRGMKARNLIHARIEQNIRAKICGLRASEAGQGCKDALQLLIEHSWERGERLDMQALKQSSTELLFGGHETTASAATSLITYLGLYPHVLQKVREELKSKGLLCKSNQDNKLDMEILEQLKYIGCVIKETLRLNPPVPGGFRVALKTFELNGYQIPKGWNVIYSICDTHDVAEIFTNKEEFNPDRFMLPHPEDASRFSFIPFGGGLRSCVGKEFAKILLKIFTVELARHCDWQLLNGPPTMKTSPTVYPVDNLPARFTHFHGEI

As for `CC1(C)CCC(C)(C)c2cc(C(=O)Nc3ccc(CC(=O)O)cc3)ccc21` [Cmpd 01], the results for the IC50 in test [1] and in test [2] (setting [4]) were 5.66 µM and 8.81 µM, respectively. Besides, the “Luciferase Activity RLU Avg” value in test [3] (0.1 μM) was 0.0041 RLU; in test [3] (1 μM) it was 0.0053 RLU; in test [3] (10 μM) it was 0.0077 RLU.
For `Cc1cc2c(cc1C(=O)Nc1ccc(CC(=O)O)cc1)C(C)(C)CCC2(C)C` [Cmpd 02], the “inhibitory activity towards CYP26A1 (in words)” value in test [1] was “selective inhibitory activity towards CYP26A1”. Besides, the IC50 in test [1] worked out at 0.83 µM; in test [2] (setting [4]) it was 2.06 µM. Besides, the “inhibition of CYP26A1-mediated RA metabolism compared with ketoconazole (in words)” value in test [1] is listed as “comparable to or better than ketoconazole”. Besides, in test [2], the “inhibition of CYP26B1 enzyme (in words)” value is recorded as “None of the above compounds inhibited the CYP26B1 enzyme”. Moreover, the “Luciferase Activity RLU Avg” value is given as 0.004 RLU in test [3] (0.1 μM), 0.0042 RLU in test [3] (1 μM) and 0.0066 RLU in test [3] (10 μM).
As for `CN(C(=O)c1ccc2c(c1)C(C)(C)CCC2(C)C)c1ccc(CC(=O)O)cc1` [Cmpd 03], the IC50 in test [1] was > 100 µM; in test [2] (setting [4]), 65.4 µM. For the same molecule, the “Luciferase Activity RLU Avg” value in test [3] (0.1 μM) was 0.0041 RLU; in test [3] (1 μM), 0.0039 RLU; in test [3] (10 μM), 0.005 RLU.
Regarding `C=C(Cc1ccc(NS(=O)(=O)c2ccc3c(c2)C(C)(C)CCC3(C)C)cc1)OC` [Cmpd 04A], in test [1], the IC50 came out at 14 µM.
Still for that read-out and setting: next, `C=C(Cc1ccc(NS(=O)(=O)c2cc3c(cc2Br)C(C)(C)CCC3(C)C)cc1)OC` [Cmpd 04B]: 8.24 µM.
As for `CC1(C)CCC(C)(C)c2cc(S(=O)(=O)Nc3ccc(CC(=O)O)cc3)ccc21` [Cmpd 04], in test [1], the “inhibitory activity towards CYP26A1 (in words)” value was “selective inhibitory activity towards CYP26A1”, the IC50 turned out to be 1.14 µM and the “inhibition of CYP26A1-mediated RA metabolism compared with ketoconazole (in words)” value was “comparable to or better than ketoconazole”. Further, in test [2], the “inhibition of CYP26B1 enzyme (in words)” value is given as “None of the above compounds inhibited the CYP26B1 enzyme”. In test [2] (setting [4]), the IC50 is 18.9 µM. Also, the “Luciferase Activity RLU Avg” value in test [3] (0.1 μM) was determined as 0.0046 RLU. In addition, the “Luciferase Activity RLU Avg” value in test [3] (1 μM) was determined as 0.0035 RLU.
In the case of `CC1(C)CCOc2ccc(C(=O)Nc3ccc(CC(=O)O)cc3)cc21` [Cmpd 05], the IC50 in test [1] was found to be 39.7 µM; in test [2] (setting [4]), 11.5 µM.
`CC(C)c1cc2c(cc1C(=O)Nc1ccc(CC(=O)O)cc1)C(C)(C)CCC2(C)C` [Cmpd 06]: in test [1], the “inhibitory activity towards CYP26A1 (in words)” value was “selective inhibitory activity towards CYP26A1”. The IC50 stood at 1.29 µM in test [1] and 42.3 µM in test [2] (setting [4]). Moreover, the “inhibition of CYP26A1-mediated RA metabolism compared with ketoconazole (in words)” value in test [1] was “comparable to or better than ketoconazole”. Moreover, in test [2], the “inhibition of CYP26B1 enzyme (in words)” value is “None of the above compounds inhibited the CYP26B1 enzyme”. Further, the “Luciferase Activity RLU Avg” value is 0.0021 RLU in test [3] (0.1 μM), 0.002 RLU in test [3] (1 μM) and 0.0018 RLU in test [3] (10 μM).
With `Cc1cc2c(cc1S(=O)(=O)Nc1ccc(CC(=O)O)cc1)C(C)(C)CCC2(C)C` [Cmpd 07], the “Luciferase Activity RLU Avg” value was 0.0016 RLU in test [3] (0.1 μM), 0.0019 RLU in test [3] (1 μM) and 0.0011 RLU in test [3] (10 μM).
For the molecule `CC1(C)CCC(C)(C)c2cc(NC(=O)c3ccc(CC(=O)O)cc3)ccc21` [Cmpd 08], the IC50 in test [1] was 3.17 µM; in test [2] (setting [4]), 19.2 µM. Also, the entries for the “Luciferase Activity RLU Avg” value in test [3] (0.1 μM), in test [3] (1 μM) and in test [3] (10 μM) were 0.0025 RLU, 0.0019 RLU and 0.0028 RLU, respectively.
On to `C=C(Cc1ccc(NS(=O)(=O)c2ccc3c(c2)C(C)(C)CCC3(C)C)cc1F)OC` [Cmpd 09A], for which the IC50 in test [1] was 80.5 µM.
`CC1(C)CCC(C)(C)c2cc(S(=O)(=O)Nc3ccc(CC(=O)O)c(F)c3)ccc21` [Cmpd 09]: the IC50 in test [1] was 2.2 µM; in test [2] (setting [4]), 14.2 µM. In addition, the figures for the “Luciferase Activity RLU Avg” value in test [3] (0.1 μM), in test [3] (1 μM) and in test [3] (10 μM) were 0.0018 RLU, 0.0017 RLU and 0.0012 RLU, respectively.
Taken in the same sequence, the figures for `Cc1cc2c(c(C)c1C(=O)Nc1ccc(CC(=O)O)cc1)C(C)(C)CCC2(C)C` [Cmpd 10] were 8.23 µM, 0.55 µM, 0.073 RLU, 0.076 RLU and 0.084 RLU.
Taken in the same sequence, the figures for `CC(C)c1cc2c(cc1S(=O)(=O)Nc1ccc(CC(=O)O)cc1)C(C)(C)CCC2(C)C` [Cmpd 11] were 20 µM, > 1000 µM, 0.064 RLU, 0.062 RLU and 0.044 RLU.
For `Cc1cc2c(cc1S(=O)(=O)Nc1ccc(C3(C(=O)O)CC3)cc1)C(C)(C)CCC2(C)C` [Cmpd 13], in that order: 6.2 µM, > 100 µM, 0.113 RLU, 0.07 RLU and 0.04 RLU.
As to `Cc1cc2c(cc1S(=O)(=O)Nc1ccc(C(=O)O)cc1)C(C)(C)CCC2(C)C` [Cmpd 14], the IC50 in test [1] was 28.4 µM; in test [2] (setting [4]) it was > 100 µM. For the same molecule, the “Luciferase Activity RLU Avg” value stood at 0.111 RLU in test [3] (0.1 μM), 0.125 RLU in test [3] (1 μM) and 0.134 RLU in test [3] (10 μM).
Regarding `Cc1cc2c(cc1C(=O)Nc1ccc(C(C)(C)C(=O)O)cc1)C(C)(C)CCC2(C)C` [Cmpd 16], the “inhibitory activity towards CYP26A1 (in words)” value in test [1] is “selective inhibitory activity towards CYP26A1”. For the same molecule, the figures for the IC50 in test [1] and in test [2] (setting [4]) were 1.77 µM and 11.9 µM, respectively. In addition, the “inhibition of CYP26A1-mediated RA metabolism compared with ketoconazole (in words)” value in test [1] was “comparable to or better than ketoconazole”. For the same molecule, the “inhibition of CYP26B1 enzyme (in words)” value in test [2] is on record as “None of the above compounds inhibited the CYP26B1 enzyme”. Moreover, the “Luciferase Activity RLU Avg” value was 0.166 RLU in test [3] (0.1 μM), 0.183 RLU in test [3] (1 μM) and 0.155 RLU in test [3] (10 μM).
As for `CCC(CC)(C(=O)O)c1ccc(NS(=O)(=O)c2ccc3c(c2)C(C)(C)CCC3(C)C)cc1` [Cmpd 17], the IC50 in test [1] was determined as 38.7 µM; in test [2] (setting [4]), 0.29 µM. The entries for the “Luciferase Activity RLU Avg” value in test [3] (0.1 μM), in test [3] (1 μM) and in test [3] (10 μM) were 0.023 RLU, 0.026 RLU and 0.038 RLU, respectively.
For `CCC(CC)(C(=O)O)c1ccc(NS(=O)(=O)c2cc3c(cc2C)C(C)(C)CCC3(C)C)cc1` [Cmpd 18], in that order: > 1000 µM, 9.07 µM, 0.0683 RLU, 0.0597 RLU and 0.05 RLU.
As for `Cc1cc2c(cc1S(=O)(=O)Nc1ccc(C(C(=O)O)C(C)C)cc1)C(C)(C)CCC2(C)C` (stereo not drawn) [Cmpd 19], the “inhibitory activity towards CYP26A1 (in words)” value in test [1] is “selective inhibitory activity towards CYP26A1”. Also, the IC50 in test [1] was 0.741 µM; in test [2] (setting [4]), > 100 µM. For the same molecule, the “inhibition of CYP26A1-mediated RA metabolism compared with ketoconazole (in words)” value in test [1] is “comparable to or better than ketoconazole”. Further, the “inhibition of CYP26B1 enzyme (in words)” value in test [2] is “None of the above compounds inhibited the CYP26B1 enzyme”. Moreover, the “Luciferase Activity RLU Avg” value is on record as 0.0244 RLU in test [3] (0.1 μM), 0.019 RLU in test [3] (1 μM) and 0.0076 RLU in test [3] (10 μM).
Consider `Cc1cc(S(=O)(=O)Nc2ccc(CC(=O)O)cc2)cc2c1OC(C)(C)CC2(C)C` [Cmpd 21], for which, in test [1], the “inhibitory activity towards CYP26A1 (in words)” value is given as “selective inhibitory activity towards CYP26A1”, the IC50 was 1.9 µM and the “inhibition of CYP26A1-mediated RA metabolism compared with ketoconazole (in words)” value was “comparable to or better than ketoconazole”. Also, in test [2], the “inhibition of CYP26B1 enzyme (in words)” value was “None of the above compounds inhibited the CYP26B1 enzyme” and the IC50 was 21.8 µM.
